Results reported in patent publication US20100324150A1, “HYPERBRANCHED POLYGLYCEROL FOR IMPROVING HEART FUNCTION” (THE UNIVERSITY OF BRITISH COLUMBIA, priority 2007, published 2010).

Experiments:
H9C2 cells = test: Lactate production by H9C2 cells; assay type: cell-based, rat; settings: for Lactate concentration / production in H9C2 cells (in words): relative to control
Protocol: H9C2 (2-1) embryonic rat heart cells (passage 12, obtained from American Type Culture Collection, Manassas, Va.) were cultured in Dulbecco's modified Eagle's medium (DMEM—Gibco-Invitrogen) containing 10% fetal bovine serum (FBS) and 100 U/ml penicillin-streptomycin at 37° C. in a humidified atmosphere containing 5% CO2. The cells were subcultured into 60 mm culture dishes when 80% confluent (before fusion into myotubes occurred) and were differentiated toward a cardiac phenotype by exposure to DMEM containing 1% horse serum and 0.1 μM all-trans retinoic acid (Sigma) for four days (Menard et al 1999. J Biol Chem 274:29063-70; Bronstrom et al 2000. Int J. Biochem Cell Biol 32:993-1006). Retinoic acid was prepared in the dark in DMSO and stored at −20° C. The concentration of DMSO in the culture media was less than 0.2%. Media was changed daily.
To screen for metabolic actions of dHPGs, H9C2 cells were exposed to a range of dHPG concentration (0.001 to 100 μM). Studies were conducted over six hours in serum-free Krebs-Henseleit (KH) solution (118 mM NaCl, 4.7 mM KCl, 1.2 mM KH2PO4, 1.2 mM MgSO4, 2.0 mM CaCl2, 25 mM NaHCO3, 0.4 mM Na2CO3) containing 0.4 mM palmitate (bound to fatty-acid free albumin), 5.5 mM glucose and 20 mU/L insulin. Aliquots of media (60 μl) were taken at 3 and 6 hours. Viability of cells was assessed by visual inspection of cell morphology using a microscope and by assessment of mitochondrial integrity (MTS—Promega). Accumulation of lactate in the bathing solution over 6 hrs was measured using a diagnostic kit (Sigma, St. Louis, Mo.). Lactate accumulation was expressed as μmol/mg protein. Protein content of the cultures was determined using a commercial Bicinchoninic Acid (BCA) protein assay kit from Sigma (St. Louis, Mo.). Pharmacological agents used as controls included Dicholoracetate (DCA), which directly stimulates glucose oxidation by activating pyruvate dehydrogenase and causes a reduction in lactate.
A variety of dHPG polymers were administered to H9C2 cells in culture and the lactate production analyzed (Tables 2, 3; FIGS. 1a, b). […] Concentration range data (0.0001 to 250.0 uM), as well as controls (dichloroacetate-7.5 mM, DCA-BDH), a group exposed to oxfenicine (2 mM, OXF-Fluka), and a group exposed to oligomycin (2.0 μM, Oligo-Sigma).

[1] = test system: isolated working rat hearts; test: Isolated working rat hearts, normoxic non-ischemic perfusion
Protocol: Hearts from halothane (3-4%)-anesthetized male Sprague-Dawley rats were isolated and perfused as working preparations with Krebs-Henseleit (KH) solution at a left atrial preload of 11.5 mmHg and an aortic afterload of 80 mmHg in a closed recirculating system with oxygenated (95% O2-5% CO2) Krebs-Henseleit (KH) solution maintained at 37° C., as described (Burelle et al 2004. Am J Physiol Heart Circ Physiol 287:H1055-63; Allard et al 1994. Am J Physiol 267:H742-H750; Saeedi et al 2006. BMC Cardiovasc Disord 6:8). A first series of hearts was perfused with KH solution containing 0.6 or 1.2 mM [1-^14C]- or [9,10-^3H]-palmitate, prebound to fatty acid-free albumin (3%), together with 5.5 mM glucose, 0.5 mM lactate, and 20 mU/l insulin in order to measure rates of palmitate oxidation. A second series of hearts was perfused with KH solution containing 0.6 or 1.2 mM palmitate, 5.5 mM [5-^3H/U-^14C]-glucose, 0.5 mM lactate, and 20 mU/l insulin in order to measure glycolysis and glucose oxidation. Concentrations of insulin and substrates reflect values seen under physiologic and pathophysiologic conditions. […]
Heart rate and systolic pressure may be measured using a pressure transducer (Viggo-Spectramed, Oxnard, Calif.) inserted in the afterload line of the isolated heart. Cardiac output and aortic flow may be measured via external flow probes (Transonic Systems, Ithaca, N.Y.) on the left atrial preload and aortic afterload lines, respectively. External work performed by the heart is expressed as, “rate-pressure product”, the product of heart rate and peak systolic pressure, and “hydraulic work”, the product of cardiac output and peak systolic pressure. […]
Isolated, working rat hearts were exposed to 10 μM dHPG-85K-G71.4-C181.9-PEG26.7(RKK-108) and studied under normoxic, non-ischemic conditions. During normoxic, non-ischemic perfusion, RKK108 improves heart function (rate-pressure assessment—beats per minute×mmHg/1000) by about 10 to about 15% (FIG. 2), When heart function is assessed by hydraulic work an improvement of about 20% is also observed.

SMILES: O=C(O)C(Cl)Cl [DCA, dichloroacetate]
- Lactate Production by H9C2 Cells (H9C2 cells; 7.5 mM): 63 ± 5 % Control

SMILES: CC[C@H]1/C=C/C=C/C[C@@H](C)[C@H](O)[C@@](C)(O)C(=O)[C@@H](C)[C@H](O)[C@@H](C)C(=O)[C@@H](C)[C@H](O)[C@@H](C)/C=C/C(=O)O[C@@H]2[C@H](C)[C@H](CC1)O[C@]1(CC[C@H](C)[C@H](C[C@@H](C)O)O1)[C@H]2C [Oligomycin]
- Lactate Production by H9C2 Cells (H9C2 cells; 2 μM): 226 ± 10 % Control
- Lactate concentration / production in H9C2 cells (in words) (H9C2 cells): increase in lactate concentration, greater than that of OXF-treated samples

SMILES: N[C@H](C(=O)O)c1ccc(O)cc1 [Oxfenicine]
- Lactate Production by H9C2 Cells (H9C2 cells; 2 mM): 130 ± 7 % Control
- Lactate concentration / production in H9C2 cells (in words) (H9C2 cells): increase in lactate
- Glycolysis [1]: accelerates both glucose oxidation and glycolysis
- Glucose oxidation ([1]; RKK108 10 μM): accelerates both glucose oxidation and glycolysis
- Palmitate oxidation ([1]; RKK108 10 μM): reduces palmitate oxidation
